{"source": "ChEMBL document CHEMBL6121007", "about": "“Design, synthesis and evaluation of pyrimidine derivatives as sedative-hypnotic agents” (Eur J Med Chem, 2025)", "key": {"[1]": {"assay": "MRT (0 to infinity) in male Sprague-Dawley rat at 2.5 mg/kg, ip measured after 5 to 1440 mins by LC-MS/MS analysis", "format": "ADME, organism-based", "settings": "in vivo, time 5-1440 min"}, "[2]": {"test_system": "Mus musculus", "assay": "Upregulation of purine metabolism related genes in hypothalamus of mouse at 2.5 mg/kg, ip measured after 30 mins by KEGG enrichment analysis relative to control", "format": "functional", "settings": "0.5 h"}, "[3]": {"test_system": "Mus musculus", "assay": "Upregulation of glycine metabolism related genes in hypothalamus of mouse at 2.5 mg/kg, ip measured after 30 mins by KEGG enrichment analysis relative to control", "format": "functional", "settings": "0.5 h"}, "[4]": {"assay": "Drug concentration in male mouse plasma at 10 mg/kg, ip measured after 1 hrs by LC-MS/MS analysis", "format": "ADME, organism-based"}, "[5]": {"test_system": "Mus musculus", "assay": "Upregulation of signaling pathways regulating pluripotent stem cells related genes in hypothalamus of mouse at 2.5 mg/kg, ip measured after 30 mins by KEGG enrichment analysis relative to control", "format": "functional", "settings": "0.5 h"}, "[6]": {"test_system": "Mus musculus", "assay": "Upregulation of linoleic acid metabolism related genes in hypothalamus of mouse at 2.5 mg/kg, ip measured after 30 mins by KEGG enrichment analysis relative to control", "format": "functional", "settings": "0.5 h"}}, "data": [{"smiles": "CCn1c2ccccc2c2cc(Nc3ccnc(Nc4ccc(C)c(OC)c4)n3)ccc21", "values": [{"measurement": "MRT inf", "setting": "[1]", "value": 8.16, "unit": "h"}, {"measurement": "Activity", "setting": "[2]", "value": 1.73, "unit": "%"}, {"measurement": "Activity", "setting": "[3]", "value": 1.73, "unit": "%"}, {"measurement": "concentration at 1 h", "setting": "[4]", "value": 75, "unit": "ng/mL"}, {"measurement": "Activity", "setting": "[5]", "value": 2.89, "unit": "%"}, {"measurement": "Activity", "setting": "[6]", "value": 1.73, "unit": "%"}]}]}
